Laboratory results as given in patent US20190314318A1, “SUPPRESSION AND PREVENTION OF TUMORS AND TREATMENT OF VIRUSES” (priority 2018, published 2019).

Columns and labels:
[1] = Additional benefits observed in people taking betaine; format: in vivo, human
Text: Betaine is known to improve cardiovascular health, and can benefit people with fatty deposits in the liver. […] After only a few weeks of taking the betaine, cholesterol levels are reduced and the ability to lose weight is improved.

[2] = in vivo; cited from earlier work
[3] = after only a few weeks of taking the betaine

C[N+](C)(C)CC(=O)[O-] [betaine, trimethylglycine]
tendency to be light headed on getting up after prolonged squatting or kneeling ([1]; a few doses of betaine at about one and a half to about three grams per day, especially older people): considerably lessened
ability to lose weight [1, 3]: improved
cholesterol levels [1, 3]: reduced
serious side effects [2]: no known serious side effects
